From US9358096B2, “Methods of treatment with drug eluting stents with prolonged local elution profiles with high local concentrations and low systemic concentrations” (Abbott Laboratories, priority 2007, dated 2016)
Where two headings read alike, the source gives them in different places.

Experiment: everolimus arterial tissue concentration in and next to the stented vessel
Format: in vivo, swine
Details: for Tmax: pig; for concentration at 3 days / concentration at 7 days / concentration at 28 days / concentration at 56 days / concentration at 90 days / concentration at 14 days: swine
[1] = 8×28 mm stent, 1070 μg everolimus (first aspect, matches group 1)
[2] = 10×28 mm stent, 1070 μg everolimus
[3] = 1070 μg, 8.0×28 mm stent, group 2, 1070 μg Lot #2, read-out: drug concentration in tissue proximal to stented region
[4] = 3209 μg, 8.0×28 mm stent, group 3, 3209 μg, read-out: drug concentration in tissue distal to stented region
[5] = 3209 μg, 8.0×28 mm stent, group 3, 3209 μg, read-out: drug concentration in tissue proximal to stented region
[6] = arterial tissue distal to stented region (unstented), 1070 μg, 10.0×28 mm stent, 1070 μg, read-out: drug concentration in tissue distal to stented region
[7] = arterial tissue of stented region, 1070 μg, 8.0×28 mm stent, group 2, 1070 μg Lot #2, read-out: drug concentration in tissue of stented region
[8] = arterial tissue of stented region, 1070 μg, 10.0×28 mm stent, 1070 μg, read-out: drug concentration in tissue of stented region
[9] = arterial tissue of the stented region, other: drug-eluting stent implanted in iliofemoral arteries, 1070 μg, 10.0×28 mm stent, 1070 μg, read-out: drug concentration in tissue of stented region
[10] = arterial tissue proximal to stented region (unstented), 1070 μg, 10.0×28 mm stent, 1070 μg, read-out: drug concentration in tissue proximal to stented region
[11] = arterial tissue, distal stented region (D), 7.0×100 mm stent, read-out: Mean Arterial Tissue Concentration, D distal stented region
[12] = arterial tissue, medial stented region (C), 7.0×100 mm stent, read-out: Mean Arterial Tissue Concentration, C medial stented region
[13] = arterial tissue, proximal stented region (B), 7.0×100 mm stent, read-out: Mean Arterial Tissue Concentration, B proximal stented region
[14] = arterial tissue, stented region, 3209 μg, 8.0×28 mm stent, group 3, 3209 μg, read-out: drug concentration in tissue of stented region
[15] = arterial tissue, unstented segment distal to stented region, 1070 μg, 8.0×28 mm stent, group 2, 1070 μg Lot #2, read-out: drug concentration in tissue distal to stented region
[16] = other: drug-eluting stent implanted in iliofemoral arteries, 1070 μg, 10.0×28 mm stent, 1070 μg, read-out: drug concentration in tissue distal to stented region
[17] = other: drug-eluting stent implanted in iliofemoral arteries, 1070 μg, 10.0×28 mm stent, 1070 μg, read-out: drug concentration in tissue proximal to stented region

With `CO[C@H]1C[C@@H]2CC[C@@H](C)[C@@](O)(O2)C(=O)C(=O)N2CCCC[C@H]2C(=O)O[C@H]([C@H](C)C[C@@H]2CC[C@@H](OCCO)[C@H](OC)C2)CC(=O)[C@H](C)/C=C(\C)[C@@H](O)[C@@H](OC)C(=O)[C@H](C)C[C@H](C)/C=C/C=C/C=C/1C` [everolimus, 40-O-(2-hydroxyethyl)-rapamycin] the “tissue Cmax” value (7×100 mm stent, 3777 μg everolimus) was no less than 16347 ng/g, the “tissue Cmax” value [1] was no less than 12946 ng/g and the “tissue Tmax” value [1] was 3 days. The “tissue Cmax” value (8×28 mm stent, 1070 μg everolimus (second aspect, matches group 2)) was no less than 8709 ng/g, the “tissue Cmax” value (8×28 mm stent, 3209 μg everolimus) was no less than 22027 ng/g and the “tissue Cmax” value [2] was no less than 6607 ng/g. For the same compound, the “tissue Tmax” value [2] was 3 days, the Tmax (arterial tissue of the stented vessel, 1070 ug, 8×28 mm stent, 1070 μg everolimus (second aspect, matches group 2)) was 72 h and the Tmax (arterial tissue of the stented vessel, 3209 ug, 8×28 mm stent, 3209 μg everolimus) was 72 h. It also gave a Tmax (arterial tissue, 3777 ug, 7×100 mm stent, 3777 μg everolimus) of 72 h, a concentration at 3 days [3] of 533 ng/g and a concentration at 7 days [3] of 104 ng/g. It also gave a concentration at 28 days [3] of 50 ng/g, a concentration at 56 days [3] of 10 ng/g and a concentration at 90 days [3] of 16 ng/g. For the same compound, the concentration at 3 days [4] was 856 ng/g, the concentration at 3 days [5] was 520 ng/g and the concentration at 7 days [4] was 910 ng/g. For the same compound, the concentration at 7 days [5] was 698 ng/g, the concentration at 14 days [4] was 1120 ng/g and the concentration at 14 days [5] was 307 ng/g. For the same compound, the concentration at 28 days [4] was 414 ng/g, the concentration at 28 days [5] was 136 ng/g and the concentration at 90 days [4] was 63 ng/g. It also gave a concentration at 90 days [5] of 55 ng/g, a concentration at 7 days [6] of 208 ng/g and a concentration at 14 days [6] of 251 ng/g. For the same compound, the concentration at 28 days [6] was 86 ng/g, the concentration at 3 days [7] was 8710 ng/g and the concentration at 7 days [7] was 3590 ng/g. It also gave a concentration at 28 days [7] of 1850 ng/g, a concentration at 56 days [7] of 2190 ng/g and a concentration at 90 days [7] of 1270 ng/g. It also gave a concentration at 14 days [8] of 4140 ng/g, a concentration at 28 days [8] of 3930 ng/g and a concentration at 3 days [9] of 6610 ng/g. It also gave a concentration at 7 days [9] of 5100 ng/g, a concentration at 90 days [9] of 2300 ng/g and a concentration at 14 days [10] of 40 ng/g. For the same compound, the concentration at 28 days [10] was 12 ng/g, the concentration at 3 days [11] was 12400 ng/g and the concentration at 7 days [11] was 9630 ng/g. The concentration at 14 days [11] was 6530 ng/g, the concentration at 28 days [11] was 4280 ng/g and the concentration at 90 days [11] was 2400 ng/g. For the same compound, the concentration at 3 days [12] was 16300 ng/g, the concentration at 7 days [12] was 11400 ng/g and the concentration at 14 days [12] was 5240 ng/g. The concentration at 28 days [12] was 4150 ng/g, the concentration at 90 days [12] was 2700 ng/g and the concentration at 3 days [13] was 10900 ng/g. For the same compound, the concentration at 7 days [13] was 7890 ng/g, the concentration at 14 days [13] was 4820 ng/g and the concentration at 28 days [13] was 3620 ng/g. The concentration at 90 days [13] was 2210 ng/g, the concentration at 3 days [14] was 22000 ng/g and the concentration at 7 days [14] was 17200 ng/g. It also gave a concentration at 14 days [14] of 16500 ng/g, a concentration at 28 days [14] of 13200 ng/g and a concentration at 90 days [14] of 2460 ng/g. The concentration at 3 days [15] was 1550 ng/g, the concentration at 7 days [15] was 435 ng/g and the concentration at 28 days [15] was 73 ng/g. For the same compound, the concentration at 56 days [15] was 25 ng/g, the concentration at 90 days [15] was 11 ng/g and the concentration at 3 days [16] was 278 ng/g. It also gave a concentration at 3 days [17] of 100 ng/g, a concentration at 7 days [17] of 37 ng/g and a concentration at 90 days [16] of 8 ng/g. It also gave a concentration at 90 days [17] of 7 ng/g, a concentration at 3 days (7.0×100 mm stent, read-out: Mean Arterial Tissue Concentration, A non-stented region proximal to stented region) of 269 ng/g and a concentration at 3 days (7.0×100 mm stent, read-out: Mean Arterial Tissue Concentration, E non-stented region distal to stented region) of 263 ng/g.
